Assay results taken from ChEMBL document CHEMBL1134203, “Discovery of potent and selective succinyl hydroxamate inhibitors of matrix metalloprotease-3 (stromelysin-1)” (Bioorg Med Chem Lett, 2001).
pIC50: −log10 of the molar value.

What was measured:
[1] = molecular target: Matrix metalloproteinase-9 (Homo sapiens, UniProt P14780)
[2] = molecular target: Matrix metalloproteinase-14 (Homo sapiens, UniProt P50281)

Matrix metalloproteinase-9, sequence (P14780 whole entry): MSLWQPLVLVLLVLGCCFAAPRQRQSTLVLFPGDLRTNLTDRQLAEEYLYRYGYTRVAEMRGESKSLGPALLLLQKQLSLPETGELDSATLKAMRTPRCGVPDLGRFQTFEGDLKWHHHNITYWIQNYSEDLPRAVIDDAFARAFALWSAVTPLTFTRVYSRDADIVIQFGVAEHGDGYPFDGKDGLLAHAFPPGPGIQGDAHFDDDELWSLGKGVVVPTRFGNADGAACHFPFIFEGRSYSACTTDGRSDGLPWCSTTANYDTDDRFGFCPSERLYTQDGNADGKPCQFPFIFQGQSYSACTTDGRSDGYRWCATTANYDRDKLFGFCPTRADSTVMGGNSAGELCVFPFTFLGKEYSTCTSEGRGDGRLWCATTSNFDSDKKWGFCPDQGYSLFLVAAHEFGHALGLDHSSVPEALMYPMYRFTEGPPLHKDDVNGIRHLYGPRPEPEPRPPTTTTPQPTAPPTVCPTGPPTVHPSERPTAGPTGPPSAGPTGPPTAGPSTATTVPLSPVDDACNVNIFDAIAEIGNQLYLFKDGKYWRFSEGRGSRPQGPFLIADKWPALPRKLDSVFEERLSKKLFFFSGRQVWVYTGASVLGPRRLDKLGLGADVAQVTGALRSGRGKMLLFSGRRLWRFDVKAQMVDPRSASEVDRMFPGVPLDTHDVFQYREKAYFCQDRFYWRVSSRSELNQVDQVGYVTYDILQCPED

Q: Cc1cc(CCC[C@H](CC(=O)NO)C(=O)N[C@H](C(=O)N[C@H](C)c2ccccc2)C(C)(C)C)ccc1-c1ccccc1 was tested. Which pIC50 [1] did it give?
A: 6.08

Q: What about the pIC50 [2] of the same compound?
A: 5.72
